The results in this text go back to ChEMBL document CHEMBL6096710, “Re-evaluation of Cyclic Peptide Binding to Neurotensin Receptor 1 by Shifting the Peptide Register during Synthesis” (ACS Med Chem Lett, 2025).

The nature of assay [1]: Displacement of FAM-NT8-13 from rat NTSR1 stably expressed in HEK293F cells incubated for 1 hr under dark condition by mCherry fluorophore based competition binding assay. It is filed as cell-based.
In assay [2] the target is Neurotensin receptor type 1 (Homo sapiens, UniProt P30989). The assay can be described thus: Inhibition of NTSR1 (unknown origin).
Neurotensin receptor type 1, sequence (P30989 whole entry): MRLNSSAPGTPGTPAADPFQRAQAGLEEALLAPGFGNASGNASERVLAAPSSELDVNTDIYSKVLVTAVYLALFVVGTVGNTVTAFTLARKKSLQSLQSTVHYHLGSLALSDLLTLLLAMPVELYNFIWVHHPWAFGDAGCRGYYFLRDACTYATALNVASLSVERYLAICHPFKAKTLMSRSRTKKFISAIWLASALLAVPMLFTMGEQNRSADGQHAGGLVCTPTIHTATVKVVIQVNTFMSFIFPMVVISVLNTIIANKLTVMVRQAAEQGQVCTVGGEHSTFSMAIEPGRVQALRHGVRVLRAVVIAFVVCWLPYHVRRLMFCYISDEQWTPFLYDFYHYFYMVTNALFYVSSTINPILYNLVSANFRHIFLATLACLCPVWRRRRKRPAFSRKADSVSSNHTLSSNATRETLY

For orientation: Ki means the equilibrium dissociation constant of an inhibitor or competing ligand from its target. As a reminder, the pKi is the Ki on a negative log10 scale, so that one unit is a factor of ten.

SMILES strings stand for the structures. Square brackets hold non-standard residues; d marks the D form. Peptide text beside a SMILES is read from it. NMeR = CN[C@@H](CCCNC(=N)N)C(=O)O; Tle = CC(C)(C)[C@H](N)C(=O)O

In assay [1], `CC(C)C[C@H](NC(=O)[C@@H](NC(=O)[C@H](Cc1ccc(O)cc1)NC(=O)[C@@H]1CCCN1C(=O)[C@H](CCCCN)NC(=O)[C@@H](N)CCCNC(=N)N)C(C)(C)C)C(=O)O` (H-RKPY[Tle]L-OH) had an inhibition constant (Ki) of 47.9 nM and a pKi of 7.32.

`CN[C@@H](CCCNC(=N)N)C(=O)N[C@@H](CCCCN)C(=O)N1CCC[C@H]1C(=O)N[C@@H](Cc1c[nH]c2ccccc12)C(=O)N[C@H](C(=O)N[C@@H](CC(C)C)C(=O)O)C(C)(C)C` (H-[NMeR]KPW[Tle]L-OH) gave a Ki in assay [2] of 5.37 nM. In assay [1], `CC(C)C[C@H](NC(=O)[C@@H](N)C(C)(C)C)C(=O)N[C@@H](CCCNC(=N)N)C(=O)N[C@@H](CCCCN)C(=O)N1CCC[C@H]1C(=O)N[C@@H](Cc1ccc(O)cc1)C(=O)O` (H-[Tle]LRKPY-OH) showed a pKi of under 4. With `CC(C)C[C@@H]1NC(=O)[C@H](C(C)(C)C)NC(=O)[C@H](Cc2ccc(O)cc2)NC(=O)[C@@H]2CCCN2C(=O)[C@H](CCCCN)NC(=O)[C@H](CCCNC(=N)N)NC1=O` (cyclo(KPY[Tle]LR)), the inhibition constant Ki in assay [2] is 1070 nM. In assay [1], this compound showed an inhibition constant (Ki) of 1480 nM and a pKi of under 4.
